Source: patent publication US20240254119A1 (THIRD HARMONIC BIO, INC., priority 2022, published 2024)

Columns and labels:
[1] = target: T1, MDR1 (MDR1-MDCKII cells) (Homo sapiens, UniProt P08183); assay: Permeability in MDR1-MDCKII cells; format: in vitro ADME; conditions: for MDCKII-MDR1: Papp A-B: MDCKII-MDR1, apical to basolateral
T1 construct: host or cells: MDCKII (canine kidney) cells
Procedure: Exemplary compounds were tested for cell permeability in Caco-2, MDCKII-MDR1 and MDCKII-BCRP cell lines with efflux transporter engagement inferred from the efflux ratios determined. Procedures and results are described below. […] This feature of certain compounds is in part due to efflux transporter engagement. See, for instance, exemplary such compounds included in data tables below.
MDR1-MDCKII cells (obtained from Piet Borst at the Netherlands Cancer Institute) were seeded onto […] membranes (PET) in 96-well insert systems at 2.5×10^5 cells/mL until to 4-7 days for confluent cell monolayer formation.
Test compounds were diluted with the transport buffer (HBSS with 10 mM Hepes, pH7.4) from DMSO stock solution to a concentration of 2.00 μM (DMSO<1%) and applied to the apical or basolateral side of the cell monolayer. Permeation of the test compounds from A to B direction or B to A direction was determined in duplicate. Digoxin was tested at 10.0 μM from A to B direction or B to A direction as well, while nadolol and metoprolol were tested at […] in A to B direction in duplicate. The plate was incubated for 2.5 hours in CO2 incubator at 37±1° C., with 5% CO2 at saturated humidity without shaking. In addition, the efflux ratio of each compound was also determined. Test and reference compounds were quantified by LC-MS/MS analysis based on the peak area ratio of analyte/IS.
After transport assay, Lucifer yellow rejection assay are applied to determine the cell monolayer integrity. Buffers are removed from both apical and basolateral chambers, followed by the addition of 75 μL of 100 μM lucifer yellow in transport buffer and 250 μL transport buffer in apical and basolateral chambers, respectively. The plate is incubated for 30 minutes at 37° C. with 5% CO2 and saturated humidity without shaking. After 30 minutes incubation, 20 μL of lucifer yellow samples are taken from the apical sides, followed by the addition of 60 μL of Transport Buffer. And then 80 μL of lucifer yellow samples are taken from the basolateral sides. The relative fluorescence unit (RFU) of lucifer yellow is measured at 425/528 nm (excitation/emission) with an Envision plate reader.
The apparent permeability coefficient Papp (cm/s) was calculated using the equation: […]
Where dCr/dt is the cumulative concentration of compound in the receiver chamber as a function of time (μM/s); Vr is the solution volume in the receiver chamber (0.075 mL on the apical side, 0.25 mL on the basolateral side); A is the surface area for the transport, i.e. 0.0804 cm^2 for the area of the monolayer; C0 is the initial concentration in the donor chamber (μM). The efflux ratio was calculated using the equation: […]
Where Vd is the volume in the donor chambers (0.075 mL on the apical side, 0.25 mL on the basolateral side); Cd and Cr are the final concentrations of transport compound in donor and receiver chambers, respectively.

[2] = Three time point assay for plasma, brain and testes distribution after oral dosing; format: in vivo, rat; conditions: for Brain concentration / Kp brain/plasma / Kp testes/plasma / Plasma concentration / Testes concentration: rat, oral dosing
Procedure: Exemplary compounds were tested for distribution in plasma, brain and testes tissue following oral dosing of the compounds in rats. Procedures and results are described below.
Male SD Rats were group-housed (up to four animals/sex/cage) in polysulfone cages with certified aspen wood bedding during acclimation and study period.
Certified rodent diet and water was provided to all animals ad libitum, unless fasting for study procedures.
Appropriate amount of test article was accurately weighed and mixed with an appropriate volume of vehicle to get a clear solution or a uniform suspension; vortexing or sonication in water bath may also be need. Animals were dosed within four hours after the formulation is prepared.
For PO dosing, the dose formulation was administered via oral gavage following facility SOPs. The dose volume was determined by the animals' body weight collected on the morning of dosing day. The dose was 10 mg/kg.
Each blood collection (about 1 mL per time point at one or more of 0.5 h, 2 h, 3 h, 5.3 h, and 7 h) was performed from jugular vein or other suitable site of each animal into pre-chilled commercial EDTA-K2 tubes and placed on wet ice until centrifugation.
Blood samples were processed for plasma by centrifugation at approximately 4° C., 3,200 g for 10 min. Plasma was collected respectively and transferred into pre-labeled 96 well plate or polypropylene tubes, quick frozen over dry ice and kept at −60° C. or lower until LC-MS/MS analysis.
Rat brain was perfused with PBS to remove blood before harvest.
After perfusion, brain and testis were homogenized using homogenizing buffer (15 mM PBS (pH7.4):MeOH=2:1) at the ratio of 1:9 (1 g tissue with 9 mL buffer, the dilution ratio is 10). The brain homogenate was kept at −60° C. or lower until LC-MS/MS analysis. General sample processing procedure (brain homogenate & testis homogenate) using 96-well plate: • 1). An aliquot of 40 μL unknown sample, calibration standard, quality control and dilution quality control (if have), single blank, and double blank sample was added to the 96-well plate respectively; • 2). Each sample (except the double blank) was quenched with 400 μL of IS1 respectively (double blank sample was quenched with 400 μL of I), and then the mixture was vortex-mixed for 10 min at 800 rpm and centrifuged for 15 min at 3220×g, 4° C.; • 3). An aliquot of 50 μL supernatant was transferred to another clean 96-well plate and centrifuged for 5 min at 3220×g, 4° C., then the supernatant was directly injected for LC-MS/MS analysis.
• 1. A LC-MS/MS method for the quantitative determination of test compound in biological matrix was developed under Non-GLP compliance. • 2. A calibration curve with at least 6 non-zero calibration standards was applied for the method including LLOQ. • 3. A set of QCs consisting of low, middle, and high concentrations were applied for the method. • 4. N in 1 cassette LC-MS/MS method was developed for samples coming from different studies and the interference among all cassette analytes was evaluated during the method development. • 5. Cassette administration assay was performed if the mass difference (Δmass) among different analytes was more than 4 Da. In this case, interference evaluation was not necessary.
• 1. If sample number within a batch was ≤12, at least one set of standard curve separated with two parts through begin and end of the sequence, was included in the run, and QCs were not required. The recommended injection order was C8, C6, C4, C2, study samples, C7, C5, C3, C1. • 2. If sample number within a batch was >12, one standard curve and two sets of QCs with low, middle and high concentrations were applied for bioanalysis. Meanwhile, QCs number should be more than 5% of study sample number. • 3. Samples with the same types of matrix in different studies were quantified in one analysis run by using the developed N in 1 cassette LC-MS/MS method. • 4. […]

T1 sequence (P08183 whole entry): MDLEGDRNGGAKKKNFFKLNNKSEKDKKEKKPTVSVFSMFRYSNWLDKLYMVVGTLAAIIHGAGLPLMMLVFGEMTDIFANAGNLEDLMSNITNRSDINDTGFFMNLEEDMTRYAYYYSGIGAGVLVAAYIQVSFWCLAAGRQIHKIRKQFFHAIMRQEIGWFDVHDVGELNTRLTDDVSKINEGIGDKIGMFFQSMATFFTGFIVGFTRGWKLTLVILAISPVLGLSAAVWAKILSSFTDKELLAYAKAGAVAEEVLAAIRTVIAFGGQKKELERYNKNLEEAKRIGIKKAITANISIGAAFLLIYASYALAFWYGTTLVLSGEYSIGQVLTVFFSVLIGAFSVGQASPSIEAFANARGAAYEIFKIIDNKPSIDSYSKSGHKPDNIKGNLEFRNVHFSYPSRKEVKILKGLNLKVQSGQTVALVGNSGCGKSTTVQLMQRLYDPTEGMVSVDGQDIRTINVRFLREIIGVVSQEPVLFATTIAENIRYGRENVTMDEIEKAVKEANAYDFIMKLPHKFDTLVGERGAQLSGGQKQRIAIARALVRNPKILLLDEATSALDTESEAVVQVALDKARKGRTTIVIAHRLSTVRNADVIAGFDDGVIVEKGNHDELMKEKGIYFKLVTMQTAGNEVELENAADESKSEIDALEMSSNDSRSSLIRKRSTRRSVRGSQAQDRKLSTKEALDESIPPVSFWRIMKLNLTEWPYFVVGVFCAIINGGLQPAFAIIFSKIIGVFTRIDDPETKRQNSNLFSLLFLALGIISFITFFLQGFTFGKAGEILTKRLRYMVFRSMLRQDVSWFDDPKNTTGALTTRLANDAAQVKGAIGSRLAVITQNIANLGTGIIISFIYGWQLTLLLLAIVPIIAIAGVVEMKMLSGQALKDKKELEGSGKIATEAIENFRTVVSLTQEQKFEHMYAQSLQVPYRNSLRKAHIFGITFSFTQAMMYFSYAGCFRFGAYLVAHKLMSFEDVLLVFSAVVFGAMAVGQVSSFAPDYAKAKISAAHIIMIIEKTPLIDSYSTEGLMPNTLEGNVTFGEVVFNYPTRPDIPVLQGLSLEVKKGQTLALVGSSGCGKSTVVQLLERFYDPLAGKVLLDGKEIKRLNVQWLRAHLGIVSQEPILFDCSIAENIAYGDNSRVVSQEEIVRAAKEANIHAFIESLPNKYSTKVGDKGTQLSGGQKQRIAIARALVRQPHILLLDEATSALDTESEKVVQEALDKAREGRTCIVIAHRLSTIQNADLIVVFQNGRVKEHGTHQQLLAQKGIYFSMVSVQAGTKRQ

Structure (SMILES)	MDCKII-MDR1: Efflux Ratio [1]	MDCKII-MDR1: Papp A-B [1]	Brain concentration ([2]; time point 2 h)	Kp brain/plasma ([2]; time point 2 h)	Kp testes/plasma ([2]; time point 2 h)	Plasma concentration ([2]; time point 2 h)	Testes concentration ([2]; time point 2 h)	also measured
Cc1ccc(-c2noc([C@H]3C[C@@H]3F)n2)cc1NC(=O)c1cnc2cc(OC(C)C)ccn12 [Compound I-88]	0.86	3.92 10^−6 cm/s	1200 ng/g	0.14	0.16	8.39 µg/mL	1330 ng/g	Brain concentration ([2]; time point 0.5 h): 722 ng/g; Kp brain/plasma ([2]; time point 0.5 h): 0.27; Kp testes/plasma ([2]; time point 0.5 h): 0.19; Plasma concentration ([2]; time point 0.5 h): 2.64 µg/mL; Testes concentration ([2]; time point 0.5 h): 480 ng/g; Brain concentration ([2]; time point 7 h): 1250 ng/g; Kp brain/plasma ([2]; time point 7 h): 0.15; Kp testes/plasma ([2]; time point 7 h): 0.21; Plasma concentration ([2]; time point 7 h): 9.2 µg/mL; Testes concentration ([2]; time point 7 h): 1950 ng/g
Cc1ccc(-c2noc(CC(O)C(F)F)n2)cc1NC(=O)c1cnc2ccccn12 (stereo not shown) [Compound I-114]	3.67	7.8 10^−6 cm/s	113 ng/g	0.07	0.29	1.68 µg/mL	482 ng/g	Brain concentration ([2]; time point 0.5 h): 106 ng/g; Kp brain/plasma ([2]; time point 0.5 h): 0.07; Kp testes/plasma ([2]; time point 0.5 h): 0.17; Plasma concentration ([2]; time point 0.5 h): 1.54 µg/mL; Testes concentration ([2]; time point 0.5 h): 256 ng/g; Brain concentration ([2]; time point 7 h): 45.5 ng/g; Kp brain/plasma ([2]; time point 7 h): 0.07; Kp testes/plasma ([2]; time point 7 h): 0.38; Plasma concentration ([2]; time point 7 h): 0.693 µg/mL; Testes concentration ([2]; time point 7 h): 248 ng/g; brain penetration as indicated by Kp (Cbrain/Cplasma) ([2]; result in words): do not significantly penetrate the brain or minimally penetrate the brain
Cc1ccc(-c2noc(CC(C)O)n2)cc1NC(=O)c1cnc2ccccn12 (racemic) [Compound I-363]	2.01	13 10^−6 cm/s	46 ng/g	0.06	0.13	0.815 µg/mL	104 ng/g	–
Cc1ccc(-c2noc([C@@H](C)O)n2)cc1NC(=O)c1cnc2ccccn12 [Compound I-270]	1.73	17.2 10^−6 cm/s	25.6 ng/g	0.06	0.09	0.422 µg/mL	39.3 ng/g	–
Cc1ccc(-c2noc(C3(O)CC(F)(F)C3)n2)cc1NC(=O)c1cnc2ccccn12 [Compound I-380]	2.34	10.9 10^−6 cm/s	28.2 ng/g	0.06	0.09	0.477 µg/mL	44.8 ng/g	–
Cc1ccc(-c2noc([C@H]3C[C@@H]3F)n2)cc1NC(=O)c1cnc2ccc(C#N)cn12 [Compound I-384]	0.88	17.9 10^−6 cm/s	21.4 ng/g	0.53	1.49	0.0406 µg/mL	60.7 ng/g	–
COC(=O)N1CC(c2nc(-c3ccc(C(F)F)c(NC(=O)c4cnc5ccccn45)c3)no2)C1 [Compound I-225]	1.1	15.9 10^−6 cm/s	506 ng/g	0.15	0.33	3.42 µg/mL	1140 ng/g	–
Cc1ccc(-c2noc(C3CCS(=O)(=O)C3)n2)cc1NC(=O)c1cnc2ccccn12 (racemic) [Compound I-389]	10.9	3.53 10^−6 cm/s	63 ng/g	0.03	0.91	2.03 µg/mL	1830 ng/g	–
CNC(=O)N1CC(c2nc(-c3ccc(C)c(NC(=O)c4cnc5ccccn45)c3)no2)C1 [Compound I-282]	70.3	0.47 10^−6 cm/s	–	–	–	–	–	–
Cc1nc(-c2ccc(Cl)c(NC(=O)c3cnc4ccccn34)c2)no1 [Compound I-172]	0.46	22.7 10^−6 cm/s	–	–	–	–	–	–
CCCS(=O)(=O)N1CC(c2nc(-c3ccc(Cl)c(NC(=O)c4cnc5ccccn45)c3)no2)C1 [Compound I-220]	0.71	16.3 10^−6 cm/s	–	–	–	–	–	–
Cc1ccc(-c2noc([C@H]3CCC(=O)N3)n2)cc1NC(=O)c1cnc2ccccn12 (racemic) [Compound I-327]	38.7	0.78 10^−6 cm/s	–	–	–	–	–	–
COC(=O)N1CC(c2nc(-c3ccc(C)c(NC(=O)c4cnn5ccc(Br)cc45)c3)no2)C1 [Compound I-280]	1.19	11.8 10^−6 cm/s	–	–	–	–	–	–
Cc1ccc(-c2noc([C@H]3C[C@@H]3F)n2)cc1NC(=O)c1cnc2ccc(F)cn12 [Compound I-288]	0.51	20.6 10^−6 cm/s	–	–	–	–	–	–
Cc1ccc(-c2noc(C3CC(C)(F)C3)n2)cc1NC(=O)c1cnc2ccccn12 (stereo not shown) [Compound I-387]	0.48	7.59 10^−6 cm/s	–	–	–	–	–	–
Cc1ccc(-c2noc(C3CCC3F)n2)cc1NC(=O)c1cnc2ccccn12 (racemic) [Compound I-376]	0.54	8.41 10^−6 cm/s	–	–	–	–	–	–
Cc1ccc(-c2noc(C3COC3)n2)cc1NC(=O)c1cnc2ccccn12 [Compound I-138]	1.01	22 10^−6 cm/s	–	–	–	–	–	–
Cc1ccc(-c2noc(C3CCC(F)C3)n2)cc1NC(=O)c1cnc2ccccn12 (racemic) [Compound I-319]	0.76	10 10^−6 cm/s	–	–	–	–	–	–
